Data from patent publication US8093258B2, “Use of urokinase inhibitors for the treatment and/or prevention of neuropathological diseases” (Wilex AG, priority 2005, dated 2012).

Assays:
FALS mice (G93A) = test: Treatment of G93A FALS mice with uPA inhibitor WX-C340 (survival analysis, disease progression); type: in vivo; conditions: 10 mg WX-C340 i.p. daily
Procedure: Kaplan-Meyer-Analysis, G93A-ALS-model: Comparison of the survival of control group animals (N=42) with animals treated with 10 mg/kg WX-C340 i.p. Daily (treatment start day 30, n=18).
FALS mice (G93A) begin to show behavioral symptoms at about 90 days of age while G85R mice develop symptoms at about 8 months of age. The initial symptoms is a high frequency resting tremor. This progresses to gait abnormalities and uncoordinated movements. Later the mice begin to show paralysis of the hind limbs, eventually progressing to paralysis of the forelimbs and finally to complete paralysis. Animals were sacrificed when they were unable to roll over within 10 seconds of being pushed on their side. This time point is taken as the time of death.

ALS = ALS treatment with riluzole; cited from earlier work

| Compound | progression of disease (onset of paralysis of the front legs) (FALS mice (G93A)) | survival of the animals (Kaplan-Meyer analysis, FIG. 4) (FALS mice (G93A); treatment start day 30, versus control group) | prolongation of life (ALS) |
| --- | --- | --- | --- |
| Cl.N=C(N)Nc1ccc(CNC(=O)CNC(=O)[C@@H](CO)NS(=O)(=O)Cc2ccc(Cl)cc2)cc1 [WX-C340, 4-chlorobenzyl-sulfonyl-(D)-Ser-Gly-(4-guanidinobenzyl)amide hydrochloride] | delays the progression of disease | significantly improves the survival | – |
| Nc1nc2ccc(OC(F)(F)F)cc2s1 [riluzole] | – | – | ca. 3 months |
